Assay results from ChEMBL document CHEMBL1150035, “Potent, non-peptidic oxytocin receptor antagonists from a natural source” (Bioorg Med Chem Lett, 1993).

Assays:
Oxytocin receptor = target: T1, Oxytocin receptor (Rattus norvegicus, UniProt P70536); assay: Compound was tested for its ability to inhibit binding of Oxytocin to its Oxytocin receptor in rat uterine tissue
T1 sequence (P70536 whole entry): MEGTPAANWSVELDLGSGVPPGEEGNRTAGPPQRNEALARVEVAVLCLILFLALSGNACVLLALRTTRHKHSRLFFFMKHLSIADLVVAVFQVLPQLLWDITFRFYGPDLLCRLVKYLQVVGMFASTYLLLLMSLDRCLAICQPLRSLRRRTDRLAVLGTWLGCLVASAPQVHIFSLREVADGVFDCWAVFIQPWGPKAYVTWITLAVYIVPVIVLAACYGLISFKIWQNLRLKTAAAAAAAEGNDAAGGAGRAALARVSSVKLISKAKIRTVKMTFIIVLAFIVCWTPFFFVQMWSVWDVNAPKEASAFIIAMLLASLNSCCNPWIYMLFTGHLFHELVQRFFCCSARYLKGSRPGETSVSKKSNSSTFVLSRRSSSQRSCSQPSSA

[1] = Compound was tested for its ability to inhibit binding of arginine vasopressin to Vasopressin receptor (V1 subtype)

| IC50 (Oxytocin receptor) [µM] | IC50 [1] [µM] | SMILES |
| --- | --- | --- |
| 21 | > 100 | COc1cc(C)cc2c1Oc1ccc([C@H](CC(C)C)OC(C)=O)c(OC)c1C(=O)OC2 |
| > 100 | – | COc1c([C@H](CC(C)C)OC(C)=O)ccc2c1C(=O)Oc1cc(C)cc(C=O)c1O2 |
| > 100 | – | COc1c(C(=O)CC(C)C)ccc2c1C(=O)OCc1cc(C)cc(O)c1O2 |
| 8.4 | > 100 | COc1c([C@H](CC(C)C)OC(C)=O)ccc2c1C(=O)OCc1cc(C)cc(O)c1O2 |
| > 100 | – | COc1cc(C)cc2c1Oc1ccc([C@@H](O)CC(C)C)c(OC)c1C(=O)OC2 |
| 5 | – | COc1c([C@H](CC(C)C)OC(C)=O)ccc2c1C(=O)OCc1cc(C)cc(OC(C)=O)c1O2 |
| 67 | – | COc1c([C@@H](O)CC(C)C)ccc2c1C(=O)OCc1cc(C)cc(O)c1O2 [PENICILLIDE] |
